Patent US6319898A, “Method for inhibiting eukaryotic protein kinases” (Terragen Diversity, Inc., priority 1998, dated 2001)
Residues, ends and D or L forms follow the SMILES beside them.

Experiments:
Streptomyces 85E = test: Inhibition of sporulation of Streptomyces 85E, filter paper disc on seeded plate; assay type: cell-based, Streptomyces WEC478-85E; conditions: surfactin in these concentrations (1 to 10 ug on the disc)
Experimental: In the test assay, material to be tested was applied to a filter paper disk and then placed on a plate which has been freshly seeded with the strain […] test organism. The test organism is then allowed to grow in the presence of the filter paper disk for a period of 24 to 36 hours, after which the organism is evaluated for altered development in the zone around the disk. An observation of an inhibition of the formation of aerial mycelia and spores, without inhibition of the growth of vegetative mycelia is particularly indicative of the presence of an inhibitor of post-translational phosphorylation. Samples of surfactin prepared as described from Bacillus 60A as well as surfactin from Bacillus subtilis with the same molecular weight (1036) obtained from Sigma were tested for their ability to inhibit sporulation of Streptomyces […].

Human c-Src (p60^c-src) = molecular target: T1, Human c-Src (p60^c-src) (Homo sapiens, UniProt P12931); test: c-Src tyrosine kinase ELISA based assay (Pierce), absorbance at 450 nm; assay type: biochemical
T1 construct: purchased Upstate Biotechnology
T1 sequence (P12931 whole entry): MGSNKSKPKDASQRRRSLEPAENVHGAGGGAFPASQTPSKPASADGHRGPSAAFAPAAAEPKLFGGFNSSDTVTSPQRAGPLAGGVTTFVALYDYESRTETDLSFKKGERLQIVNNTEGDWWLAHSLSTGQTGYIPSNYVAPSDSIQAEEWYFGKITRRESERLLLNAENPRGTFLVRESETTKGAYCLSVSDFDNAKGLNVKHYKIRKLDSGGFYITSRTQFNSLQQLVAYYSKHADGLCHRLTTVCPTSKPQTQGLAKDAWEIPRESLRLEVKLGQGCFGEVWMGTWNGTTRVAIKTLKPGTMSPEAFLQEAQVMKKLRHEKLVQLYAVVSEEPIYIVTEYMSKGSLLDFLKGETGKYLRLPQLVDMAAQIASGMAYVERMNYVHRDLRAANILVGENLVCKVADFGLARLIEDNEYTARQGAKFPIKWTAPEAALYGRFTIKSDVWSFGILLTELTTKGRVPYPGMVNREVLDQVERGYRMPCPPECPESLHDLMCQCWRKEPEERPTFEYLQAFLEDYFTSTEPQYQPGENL
Experimental: Human c-Src (p60^c-src) was obtained from Upstate Biotechnology. The activity of the enzyme was assayed in an ELISA based assay developed by Pierce. Following their protocol, 500 ng of a biotinylated peptide substrate in distilled water (Pierce biotinylated peptide substrate #2, sequence Biotin-EGPWLEEEEEAYGWMDF) (SEQ ID NO:2) was added to a NeutrAvidin™ coated well, incubated at 37° C. for 30 minutes to allow binding to the well then washed with Tris-buffered saline (TBS, 25 mM Tris, 0.15 M NaCl, pH 7.6). For each reaction, a reaction buffer mixture was prepared to contain 10 ul of src assay buffer (100 mM Tris-HCl, pH 7.2, 25 mM MnCl2, 2.0 mM EGTA, 0.25 mM Na3 VO4, 125 mM Mg Acetate) 20 ul of ATP/MgCl2 buffer (5 mM ATP, 50 MM MgCl2 in TBS) and 1 ul of protease inhibitor mix (PMSF and pepstatin, final concentrations in Rx: 0.5 mM and 1.5 uM). The src enzyme is supplied at a concentration of 3 units per microliter and dilutions of the kinase were prepared in 1% bovine serum albumin (BSA) in TBS typically to final concentrations of 0.2 or 0.4 units in 10 ul. 10 ul of a solution of a compound to be tested for inhibitory activity was added to the reaction buffer mixture and allowed to stand 10-15 min. at room temperature, then 10 ul of the diluted kinase enzyme was added and the mixture was allowed to stand 10 min. at room temperature before addition to the substrate coated well. The plate was incubated at 30° C. for varying periods of time then the contents were washed out with repeated rinsings with TBS. A mouse monoclonal anti-phosphotyrosine antibody (PY20) conjugated to horseradish peroxidase (Pierce) was diluted 1:2000 in 1% BSA diluent from 1 mg/ml and 75 ul of this dilution was added to each well, incubated 1 hour at 37° C. then washed out with repeated rinsings with TBS.
100 ul of horseradish peroxidase substrate solution (3,3',5,5' tetramethylbenzidine and H2 O2, Pierce TMB-ELISA) was added to each well and after 10 min. the reaction was stopped with the addition of 100 ul of 1 N H2 SO4. Absorbance was read at 450 nm in a Molecular Devices V-max plate reader.
Examples of inhibition detected using this assay: (Values reported are the absorbance readings after subtraction of a blank well containing no enzyme.)

[1] = tested on: Protein Kinase C purified from rat brain; test: Protein Kinase C colorimetric assay (Pierce), absorbance at 570 nm; assay type: biochemical; conditions: for absorbance read at 570 nm: 10 ng PKC + 10 ug, 30 min at 30° C, control reaction 0.228 (srf), 0.203 (polymyxin B)
Experimental: Protein Kinase C purified from rat brain was obtained from Upstate Biotechnology. The activity of the enzyme was assayed in a colorimetric assay developed by Pierce. Reaction mixtures were prepared to contain 5 ul each of the 5×reaction buffer, the dye labeled glycogen synthase synthetic peptide substrate reconstituted to 1.77 mM and the 5× activator solution of phosphatidyl-L-serine, all supplied by Pierce in a PKC assay kit. The activator solution was sonicated for 30 sec. on ice prior to use. 1 ul of the kinase (equivalent to 10 ng of enzyme with a specific activity of 12.1 units/mg) was added to 10 ul of a solution containing the compound to be tested for inhibitory activity and allowed to stand at room temperature for 10 minutes then transferred to the reaction tube containing the substrate and incubated 30 min. at 30° C. After incubation 20 ul of each sample was applied to the centre of the affinity membrane in the separation units supplied with the assay kit. These membranes specifically bind the phosphorylated dye labeled substrate while non-phosphorylated peptide will pass through when spun at low speeds. After washing the membranes the phosphorylated peptide was eluted by spinning with the elution buffer and absorbance read at 570 nm in a Molecular Devices V-max plate reader.

E. coli = test: Growth inhibition of E. coli; assay type: cell-based; conditions: surfactin in these concentrations (1 to 10 ug on the disc)
From the text: (§1) Eventually the inhibition is overcome and the culture sporulates.

S. aureus = test: Growth inhibition of S. aureus; assay type: cell-based; conditions: surfactin in these concentrations (1 to 10 ug on the disc)
From the text: as §1

Molecule	inhibition of growth of the vegetative mycelia (Streptomyces 85E)	persistence of the inhibition of aerial mycelia and spore formation after unaffected portions of the culture have sporulated (Streptomyces 85E)	inhibition of the activity of the tyrosine kinase (Human c-Src (p60^c-src); 100 uM in the reaction)	inhibition of the activity of the tyrosine kinase (Human c-Src (p60^c-src); 200 uM in the reaction (10 ug))	absorbance reading after subtraction of a blank well containing no enzyme (Human c-Src (p60^c-src); 0.05 unit c-Src + 10 ug, 30 min at 30° C, control reaction 0.315)	absorbance reading after subtraction of a blank well containing no enzyme (Human c-Src (p60^c-src); 0.1 unit c-Src + 10 ug, 30 min at 30° C, control reaction 0.391)	absorbance reading after subtraction of a blank well containing no enzyme (Human c-Src (p60^c-src); 0.2 unit c-Src + 5 ug, 5 min at 30° C, control 0.220)	absorbance reading after subtraction of a blank well containing no enzyme (Human c-Src (p60^c-src); 0.2 unit c-Src + 10 ug, 5 min at 30° C, control 0.220)	absorbance reading after subtraction of a blank well containing no enzyme (Human c-Src (p60^c-src); 0.2 unit c-Src + 10 ug, 30 min at 30° C, control reaction 0.396)	absorbance reading after subtraction of a blank well containing no enzyme (Human c-Src (p60^c-src); 0.4 unit c-Src + 10 ug, 30 min at 30° C, control reaction 0.517)	potency against the tyrosine kinase c-Src compared with the serine-threonine kinase PKC (Human c-Src (p60^c-src); conclusion from the c-Src and PKC assays)	absorbance read at 570 nm [1]	inhibition of Protein Kinase C ([1]; 380 uM in the reaction)	inhibition of growth of E. coli (E. coli)	inhibition of growth of S. aureus (S. aureus)
CC(C)CCCCCCCCC[C@@H]1CC(=O)N[C@@H](CCC(=O)O)C(=O)N[C@@H](CC(C)C)C(=O)N[C@H](CC(C)C)C(=O)N[C@@H](C(C)C)C(=O)N[C@@H](CC(=O)O)C(=O)N[C@H](CC(C)C)C(=O)N[C@@H](CC(C)C)C(=O)O1 [surfactin] (HELM PEPTIDE1{E.L.[dL].V.D.[dL].L}|CHEM1{[CC(C)CCCCCCCCC[C@H](CC(=O)[*:1])O[*:2]]}$PEPTIDE1,CHEM1,1:R1-1:R1|PEPTIDE1,CHEM1,7:R2-1:R2$$$V2.0)	does not inhibit growth of the vegetative mycelia	3 to 4 days	has inhibited the activity of the tyrosine kinase tested	has inhibited the activity of the tyrosine kinase tested	0.050	0.093	0.185	0.087	0.191	0.311	more potent inhibitors of the tyrosine kinase tested than this serine-threonine kinase	0.181	only minimally inhibitory	does not inhibit growth	does not inhibit growth
Polymyxin B [reference compound]	–	–	–	–	–	–	–	–	–	–	–	0.035	–	–	–
